Among the data in US20140336182A1, “Aurora Kinase Modulators and Method of Use” (Amgen Inc., priority 2013, published 2014) are EC50 values, retold here.

The structures appear in SMILES notation. Some results are limits rather than exact numbers.

In the first experiment the test system is HeLa cells. Nature of the experiment: HeLa cell 24 hr ploidy assay (DNA content). The conditions noted are these: Homo sapiens, HeLa, 4N ploidy, average, read-out: 24h_4NPloidy EC50_IP (uM Avg). Type of experiment: cell-based. The method in brief: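 HeLa cells (1×10^4/well, MEM+10% FBS) cultured 24 h, treated with serially diluted compounds (0.25% DMSO final), then fixed, permeabilized and stained with Hoechst 33342 (0.5 ug/ml). Imaging quantified % 4N and >4N cells; EC50 IP and EC50 transit derived from dose curves.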
For `COc1cnc2c(Oc3ccc(Nc4nnc(-c5ccccc5)c5ccccc45)nc3)ccnc2c1` [compound 135], the EC50 worked out at 0.449 µM.

Turning to `COc1cnc2c(Oc3ccc(Nc4ncc(-c5ccccc5)c5ccccc45)cc3)ccnc2c1` [compound 144], the EC50 worked out at 0.155 µM.

In the case of `COc1cnc2c(Oc3ccc(Nc4nnc(-c5ccc(C(C)(C)C)cc5)c5ccccc45)cc3)ccnc2c1` [Example 38, 4-(4-tert-butylphenyl)-N-(4-(7-methoxy-1,5-naphthyridin-4-yloxy)phenyl)phthalazin-1-amine], the EC50 came out at 0.08 µM.

On to `COc1cnc2c(Oc3ccc(Nc4nnc(-c5cccc(OC)n5)c5ccccc45)cc3)ccnc2c1` [compound 99], for which the EC50 worked out at 0.023 µM.

Take `N#Cc1ccc2c(Oc3ccc(Nc4nnc(-c5ccc(C(F)(F)F)cc5)c5ccccc45)cc3)ccnc2c1` [compound 147, 4-((4-((4-(4-(trifluoromethyl)phenyl)-1-phthalazinyl)amino)phenyl)oxy)-7-quinolinecarbonitrile]: the EC50 was determined as 0.02 µM.

As to `COc1cnc2c(Oc3ccc(Nc4nnc(-c5ccccc5)c5ccccc45)cc3F)ccnc2c1` [compound 89, N-(3-fluoro-4-((7-(methyloxy)-1,5-naphthyridin-4-yl)oxy)phenyl)-4-phenyl-1-phthalazinamine], the EC50 is 0.052 µM.

Consider `COc1cnc2c(Oc3ccc(Nc4nnc(-c5ccc6occc6c5)c5ccccc45)cc3)ccnc2c1` [compound 159], for which the EC50 came out at 0.007 µM.

For the molecule `COc1cnc2c(Oc3ccc(Nc4nnc(-c5ccc6sccc6c5)c5ccccc45)cc3)ccnc2c1` [compound 142], the EC50 is 0.007 µM.

Still in this experiment, the particulars now being: Homo sapiens, HeLa, HeLa cells, 4N ploidy, average, read-out: 24h_4NPloidy EC50_IP (uM Avg).
On to `COc1cnc2c(Oc3ccc(Nc4nnc(-c5ccc6cc[nH]c6c5)c5ccccc45)cc3)ccnc2c1` [compound 206], for which the EC50 is 0.002 µM.

Take `COc1ccc2c(Oc3ccc(Nc4nnc(-c5ccc(Cl)cc5)c5c4CCC5)cc3)ccnc2c1` [compound 412]: the EC50 was > 1.2 µM.

For `COc1cnc2c(Oc3ccc(Nc4nnc(-c5ccc6c(c5)OCO6)c5ccccc45)cc3)ccnc2c1` [compound 306, 4-(1,3-benzodioxol-5-yl)-N-(4-((7-(methyloxy)-1,5-naphthyridin-4-yl)oxy)phenyl)-1-phthalazinamine], the EC50 amounted to 0.006 µM.

`COc1cnc2c(Sc3ccc(Nc4nnc(-c5ccc(F)cc5)c5ccccc45)cc3)ccnc2c1` [compound 356, 4-(4-fluorophenyl)-N-(4-(7-methoxy-1,5-naphthyridin-4-ylthio)phenyl)phthalazin-1-amine]: the EC50 was 0.007 µM.

`COc1cnc2c(Oc3ccc(Nc4nnc(-c5ccc(C)c(N)c5)c5cc(F)c(F)cc45)cc3)ccnc2c1` [compound 545]: the EC50 was 0.012 µM.

`COc1cc2nccc(Sc3ccc(Nc4nnc(-c5ccccc5)c5ccccc45)cc3)c2cn1` [compound 353]: the EC50 was determined as 0.007 µM.

Take `COc1cnc2c(Oc3ccc(Nc4nnc(-c5ccc(Cl)c(Cl)c5)c5ccccc45)cc3)ccnc2c1` [compound 201, 4-(3,4-dichlorophenyl)-N-(4-((7-(methyloxy)-1,5-naphthyridin-4-yl)oxy)phenyl)-1-phthalazinamine]: the EC50 turned out to be 0.022 µM.

In the case of `Clc1ccc(-c2nnc(Nc3ccc(Oc4ccnc5ccoc45)cc3)c3ccccc23)cc1` [compound 483], the EC50 was found to be 0.102 µM.

With `COc1cnc2c(Sc3ccc(Nc4nnc(N5CCN6C[C@H](F)C[C@H]6C5)c5ccccc45)cc3)ccnc2c1` [compound 600], the EC50 came out at 0.007 µM.

As for `COc1ccc(-c2nnc(Nc3ccc(Sc4ccnc5cc(OC)cnc45)cc3)c3ccccc23)cc1` [compound 357], the EC50 came out at 0.007 µM.

`COc1cnc2c(Sc3ccc(Nc4nnc(N5CCN6CCCC[C@H]6C5)c5ccccc45)cc3)ccnc2c1` [compound 585]: the EC50 stood at 0.018 µM.

`COc1cnc2c(Oc3ccc(Nc4nnc(-c5ccc6[nH]ccc6c5)c5ccccc45)cc3)ccnc2c1` [compound 167]: the EC50 was 0.027 µM.

With `Clc1ccc(-c2nnc(Nc3ccc(Sc4ccnc5[nH]ccc45)cc3)c3ccccc23)cc1` [compound 330], the EC50 turned out to be 0.016 µM.

Turning to `COc1cnc2c(Oc3ccc(Nc4nnc(-c5ccnn5C)c5ccccc45)cc3)ccnc2c1` [compound 223], the EC50 was > 1.2 µM.

Turning to `Clc1ccc(-c2nnc(Nc3ccc(Oc4ccnc5ccsc45)cc3)c3ccccc23)cc1` [compound 250, 4-(4-chlorophenyl)-N-(4-(thieno[3,2-b]pyridin-7-yloxy)phenyl)-1-phthalazinamine], the EC50 stood at 0.031 µM.

As to `COCCOc1cc(-c2nnc(Nc3ccc(Sc4ccnc5cc(OC)cnc45)cc3)c3ccccc23)ccc1Cl` [compound 450], the EC50 was found to be 0.008 µM.

On to `COc1cnc2c(Oc3ccc(Nc4nnc(-c5ccc(Cl)nc5)c5ccccc45)cc3)ccnc2c1` [compound 235, 4-(6-chloro-3-pyridinyl)-N-(4-((7-(methyloxy)-1,5-naphthyridin-4-yl)oxy)phenyl)-1-phthalazinamine], for which the EC50 amounted to 0.058 µM.

For `Oc1cnc2c(Sc3ccc(Nc4nnc(-c5ccccc5)c5ccccc45)cc3)ccnc2c1` [compound 415], the EC50 amounted to 0.015 µM.

Regarding `COCCn1ccc2nccc(Sc3ccc(Nc4nnc(-c5cc(C)cs5)c5ccccc45)cc3)c21` [compound 470], the EC50 was < 0.0023 µM.

As for `CS(=O)(=O)CCOc1ccc2nccc(Sc3ccc(Nc4nnc(-c5ccc(Cl)cc5)c5ccccc45)cc3)c2c1` [Example 390, 4-(4-Chlorophenyl)-N-(4-(6-(2-(methylsulfonyl)ethoxy)quinolin-4-ylthio)phenyl) phthalazin-1-amine], the EC50 was > 1.2 µM.

`COCc1cc(-c2ccccc2)nnc1Nc1ccc(Oc2ccnc3cc(OC)cnc23)cc1` [compound 593]: the EC50 was > 1.2 µM.

As for `COc1ccc2c(Cc3ccc(Nc4nnc(-c5ccc(Cl)cc5)c5ccccc45)cc3)ccnc2c1` [compound 328], the EC50 was determined as 0.006 µM.

For `COc1cnc2c(Oc3ccc(Nc4nnc(-c5ccc(Cl)cc5)c5ccccc45)cn3)ccnc2c1` [compound 222, 4-(4-chlorophenyl)-N-(6-((7-(methyloxy)-1,5-naphthyridin-4-yl)oxy)-3-pyridinyl)-1-phthalazinamine], the EC50 is 0.026 µM.

As for `O=C(Nc1cc(Oc2ccc(Nc3nnc(-c4ccccc4)c4ccccc34)cc2F)ccn1)N1CCOCC1` [compound 179], the EC50 came to 0.226 µM.

Take `COc1cnc2c(Sc3ccc(Nc4nnc(N5CCN(S(C)(=O)=O)CC5)c5ccccc45)cc3)ccnc2c1` [compound 605]: the EC50 worked out at 0.018 µM.

With `COc1cnc2c(Sc3ccc(Nc4nnc(-c5ccc(C)c(OC)c5)c5ccccc45)cc3)ccnc2c1` [compound 529], the EC50 amounted to 0.006 µM.

With `c1ccc2c(-c3ccc4c(c3)OCO4)nnc(Nc3ccc(Sc4ccnc5ccncc45)cc3)c2c1` [compound 427], the EC50 is 0.002 µM.

For `COc1cnc2c(Sc3ccc(Nc4nnc(Cl)c5ccccc45)cc3)ccnc2c1` [compound 536], the EC50 was determined as 0.031 µM.

In the case of `COc1cnc2c(Oc3ccc(Nc4nnc(-c5cc6ccccc6s5)c5ccccc45)cc3)ccnc2c1` [compound 171], the EC50 came to 0.004 µM.

On to `COc1ccc2c(Cc3ccc(Nc4nnc(-c5ccccc5)c5ccccc45)cc3)ccnc2c1` [compound 319], for which the EC50 came out at 0.028 µM.

Consider `Clc1ccc(-c2nnc(Nc3ccc(Oc4ncnc5[nH]ccc45)cc3)c3ccccc23)cc1` [compound 290], for which the EC50 was 0.397 µM.

In the case of `COc1cnc2c(Sc3ccc(Nc4nnc(-c5cccc(C)n5)c5ccccc45)cc3)ccnc2c1` [compound 420], the EC50 was determined as 0.029 µM.
